Measured values taken from patent US20260035359A1, “HERBICIDAL IMIDAZOLE COMPOUNDS” (SYNGENTA CROP PROTECTION AG, priority 2022, published 2026).

Key:
Format in all cases: in vivo
[1] = system: Amaranthus retoflexus (AMARE); experiment: Post-emergence herbicidal glasshouse test; details: 250 g/ha, sprayed after 8 days cultivation, evaluated after 13 days
Protocol: (§1) Seeds of a variety of test species are sown in standard soil in pots Amaranthus pa/meri (AMAPA), Amaranthus retoflexus (AMARE), Echinochloa crus-gali (ECHCG), Ipomoea hederacea (IPOHE), Setaria faberi (SETFA). After cultivation for one day (pre-emergence) or after 8 days cultivation (post-emergence) under controlled conditions in a glasshouse (at 24/16° C., day/night; 14 hours light; 65% humidity), the plants are sprayed with an aqueous spray solution derived from the formulation of the technical active ingredient in acetone/water (50:50) solution containing 0.5% Tween 20 (polyoxyethelyene sorbitan monolaurate, CAS RN 9005-64-5). Compounds are applied at 250 g/ha unless otherwise stated. The test plants are then grown in a glasshouse under controlled conditions in a glasshouse (at 24/16° C., day/night; 14 hours light; 65% humidity) and watered twice daily. After 13 days for pre and post-emergence, the test is evaluated for the percentage damage caused to the plant. The biological activities are shown in the following table on a five-point scale (5=81-100%; 4=61-80%; 3=41-60%; 2=21-40%; 1=0-20%).

[2] = system: Ipomoea hederacea (IPOHE); experiment: Post-emergence herbicidal glasshouse test; details: 250 g/ha, sprayed after 8 days cultivation, evaluated after 13 days
Protocol: as §1

[3] = system: Echinochloa crus-gali (ECHCG); experiment: Post-emergence herbicidal glasshouse test; details: 250 g/ha, sprayed after 8 days cultivation, evaluated after 13 days
Protocol: as §1

[4] = system: Amaranthus pa/meri (AMAPA); experiment: Post-emergence herbicidal glasshouse test; details: 250 g/ha, sprayed after 8 days cultivation, evaluated after 13 days
Protocol: as §1

[5] = system: Amaranthus retoflexus (AMARE); experiment: Pre-emergence herbicidal glasshouse test; details: 250 g/ha, sprayed after one day cultivation, evaluated after 13 days
Protocol: as §1

[6] = system: Ipomoea hederacea (IPOHE); experiment: Pre-emergence herbicidal glasshouse test; details: 250 g/ha, sprayed after one day cultivation, evaluated after 13 days
Protocol: as §1

[7] = system: Echinochloa crus-gali (ECHCG); experiment: Pre-emergence herbicidal glasshouse test; details: 250 g/ha, sprayed after one day cultivation, evaluated after 13 days
Protocol: as §1

[8] = system: Amaranthus pa/meri (AMAPA); experiment: Pre-emergence herbicidal glasshouse test; details: 250 g/ha, sprayed after one day cultivation, evaluated after 13 days
Protocol: as §1

Compound	percentage damage caused to the plant, AMARE [1]	percentage damage caused to the plant, IPOHE [2]	percentage damage caused to the plant, ECHCG [3]	percentage damage caused to the plant, AMAPA [4]	percentage damage caused to the plant, AMARE [5]	percentage damage caused to the plant, IPOHE [6]	percentage damage caused to the plant, ECHCG [7]	percentage damage caused to the plant, AMAPA [8]
ON=CCCc1nc(C(F)(F)F)cn1Cc1ncc(Cl)cn1 (single isomer, unassigned) [Compound 1.005]	3 (3=41-60%)	2 (2=21-40%)	1 (1=0-20%)	3 (3=41-60%)	1 (1=0-20%)	1 (1=0-20%)	1 (1=0-20%)	1 (1=0-20%)
FC(F)(F)c1cn(Cc2ncc(Cl)cn2)c(CCC=NOCC2CC2)n1 (single isomer, unassigned) [Compound 1.006]	3 (3=41-60%)	2 (2=21-40%)	1 (1=0-20%)	3 (3=41-60%)	5 (5=81-100%)	1 (1=0-20%)	1 (1=0-20%)	2 (2=21-40%)
CON=CCCc1nc(C(F)(F)F)cn1Cc1ncc(Cl)cn1 (single isomer, unassigned) [Compound 1.007, 3-[1-[(5-chloropyrimidin-2-yl)methyl]-4-(trifluoromethyl)-imidazol-2-yl]-N-methoxy-propan-1-imine]	4 (4=61-80%)	3 (3=41-60%)	1 (1=0-20%)	4 (4=61-80%)	5 (5=81-100%)	5 (5=81-100%)	2 (2=21-40%)	5 (5=81-100%)
C#CCON=CCCc1nc(C(F)(F)F)cn1Cc1ncc(Cl)cn1 (single isomer, unassigned) [Compound 1.028]	5 (5=81-100%)	2 (2=21-40%)	2 (2=21-40%)	4 (4=61-80%)	5 (5=81-100%)	4 (4=61-80%)	1 (1=0-20%)	5 (5=81-100%)
CCCCc1nc(C=NOC)cn1Cc1ncc(Cl)cn1 (single isomer, unassigned) [Compound 1.076, 1-[2-butyl-1-[(5-chloropyrimidin-2-yl)methyl]imidazol-4-yl]-N-methoxy-methanimine]	1 (1=0-20%)	1 (1=0-20%)	1 (1=0-20%)	1 (1=0-20%)	1 (1=0-20%)	1 (1=0-20%)	1 (1=0-20%)	1 (1=0-20%)
O=S(=O)(CCC(F)(F)F)c1nc(C(F)F)cn1Cc1ncc(Cl)cn1 [Compound 1.009]	1 (1=0-20%)	1 (1=0-20%)	1 (1=0-20%)	1 (1=0-20%)	1 (1=0-20%)	2 (2=21-40%)	1 (1=0-20%)	1 (1=0-20%)
FC(F)CCc1nc(C(F)(F)F)cn1Cc1ncc(Cl)cn1 [Compound 1.010, 5-chloro-2-[[2-(3,3-difluoropropyl)-4-(trifluoromethyl)-imidazol-1-yl]methyl]-pyrimidine]	4 (4=61-80%)	4 (4=61-80%)	4 (4=61-80%)	4 (4=61-80%)	5 (5=81-100%)	5 (5=81-100%)	4 (4=61-80%)	5 (5=81-100%)
FC(F)c1cn(Cc2ncc(Cl)cn2)c(SCCC(F)(F)F)n1 [Compound 1.012]	1 (1=0-20%)	2 (2=21-40%)	1 (1=0-20%)	1 (1=0-20%)	1 (1=0-20%)	1 (1=0-20%)	1 (1=0-20%)	1 (1=0-20%)
O=CCCc1nc(C(F)(F)F)cn1Cc1ncc(Cl)cn1 [Compound 1.013, 3-[1-[(5-chloropyrimidin-2-yl)methyl]-4-(trifluoromethyl)imidazol-2-yl]propanal]	1 (1=0-20%)	1 (1=0-20%)	1 (1=0-20%)	1 (1=0-20%)	5 (5=81-100%)	1 (1=0-20%)	1 (1=0-20%)	2 (2=21-40%)
CCCCCc1nc(C(F)(F)F)cn1Cc1ncc(C#N)cn1 [Compound 1.015]	2 (2=21-40%)	3 (3=41-60%)	1 (1=0-20%)	1 (1=0-20%)	4 (4=61-80%)	2 (2=21-40%)	1 (1=0-20%)	4 (4=61-80%)
CCCCCc1nc(C(F)(F)F)cn1Cc1ncc(C)cn1 [Compound 1.016]	2 (2=21-40%)	2 (2=21-40%)	1 (1=0-20%)	1 (1=0-20%)	5 (5=81-100%)	2 (2=21-40%)	1 (1=0-20%)	5 (5=81-100%)
FC(F)COCCc1nc(C(F)(F)F)cn1Cc1ncc(Cl)cn1 [Compound 1.017]	4 (4=61-80%)	4 (4=61-80%)	3 (3=41-60%)	4 (4=61-80%)	5 (5=81-100%)	5 (5=81-100%)	5 (5=81-100%)	5 (5=81-100%)
COCCc1nc(C(F)(F)F)cn1Cc1ncc(Cl)cn1 [Compound 1.018]	2 (2=21-40%)	3 (3=41-60%)	1 (1=0-20%)	2 (2=21-40%)	5 (5=81-100%)	4 (4=61-80%)	1 (1=0-20%)	4 (4=61-80%)
CCCCCc1nc(C(F)(F)F)cn1Cc1ncc(Cl)cn1 [Compound 1.019]	2 (2=21-40%)	1 (1=0-20%)	3 (3=41-60%)	2 (2=21-40%)	5 (5=81-100%)	1 (1=0-20%)	5 (5=81-100%)	5 (5=81-100%)
N#CCCc1nc(C(F)(F)F)cn1Cc1ncc(Cl)cn1 [Compound 1.029]	4 (4=61-80%)	3 (3=41-60%)	1 (1=0-20%)	4 (4=61-80%)	5 (5=81-100%)	5 (5=81-100%)	2 (2=21-40%)	5 (5=81-100%)
CCCCc1nc(I)cn1Cc1ncc(Cl)cn1 [Compound 1.079]	1 (1=0-20%)	1 (1=0-20%)	1 (1=0-20%)	1 (1=0-20%)	1 (1=0-20%)	–	1 (1=0-20%)	1 (1=0-20%)
